Assay results as given in patent publication US12522602B2, “Derivatives having 2,3-dihydro-1H-indene or 2,3-dihydrobenzofuran moiety or pharmaceutically acceptable salt thereof and pharmaceutical compositions comprising the same” (YUHAN CORPORATION, priority 2019, dated 2026).

system: GM1 production in Jurkat cells; test: cells; assay type: cell-based; conditions: Homo sapiens, Jurkat, 72 h

SMILES	IC50
Cc1cc(-c2ccc3c(c2)CC(C)(C)C3NC(=O)O[C@@H]2CN3CCC2CC3)co1 (stereo partly drawn) [Example 235, (S)-quinuclidin-3-yl (2,2-dimethyl-5-(5-methylfuran-3-yl)-2,3-dihydro-1H-inden-1-yl)carbamate]	6.5 nM
CCOc1ccc(-c2ccc3c(c2)CC(C)(C)C3NC(=O)O[C@@H]2CN3CCC2CC3)cc1F (stereo partly drawn) [Example 133, (S)-quinuclidin-3-yl (5-(4-ethoxy-3-fluorophenyl)-2,2-dimethyl-2,3-dihydro-1H-inden-1-yl)carbamate]	22.6 nM
COc1cc(F)ccc1-c1ccc2c(c1)CC(C)(C)C2NC(=O)O[C@@H]1CN2CCC1CC2 (stereo partly drawn) [Example 179, (S)-quinuclidin-3-yl (5-(4-fluoro-2-methoxyphenyl)-2,2-dimethyl-2,3-dihydro-1H-inden-1-yl)carbamate]	41 nM
COc1ccc(-c2ccc3c(c2)CC(C)(C)C3NC(=O)O[C@@H]2CN3CCC2CC3)c(OC)n1 (stereo partly drawn) [Example 184, (S)-quinuclidin-3-yl (5-(2,6-dimethoxypyridin-3-yl)-2,2-dimethyl-2,3-dihydro-1H-inden-1-yl)carbamate]	40 nM
CCC1(CC)Cc2cc(-c3ccc(OC(C)C)cc3)ccc2C1NC(=O)O[C@@H]1CN2CCC1CC2 (stereo partly drawn) [Example 286, (S)-quinuclidin-3-yl (2,2-diethyl-5-(4-isopropoxyphenyl)-2,3-dihydro-1H-inden-1-yl)carbamate]	4.1 nM
CCOc1c(C)cc(-c2ccc3c(c2)CC(C)(C)C3NC(=O)O[C@@H]2CN3CCC2CC3)cc1C (stereo partly drawn) [Example 174, (S)-quinuclidin-3-yl (5-(4-ethoxy-3,5-dimethylphenyl)-2,2-dimethyl-2,3-dihydro-1H-inden-1-yl)carbamate]	40.2 nM
CSc1cc(-c2ccc3c(c2)CC(C)(C)C3NC(=O)O[C@@H]2CN3CCC2CC3)cc(C(F)(F)F)c1 (stereo partly drawn) [Example 248, (S)-quinuclidin-3-yl (2,2-dimethyl-5-(3-(methylthio)-5-(trifluoromethyl)phenyl)-2,3-dihydro-1H-inden-1-yl)carbamate]	14.9 nM
O=C(NC1c2ccc(-c3ccc(OC(F)(F)F)cc3)cc2CC12CC2)O[C@@H]1CN2CCC1CC2 (stereo partly drawn) [Example 392, (S)-quinuclidin-3-yl (5′-(4-(trifluoromethoxy)phenyl)-1′,3′-dihydrospiro[cyclopropane-1,2′-inden]-1′-yl)carbamate]	41.9 nM
CCC1(CC)Cc2cc(-c3ccc(C(C)(C)C)cc3)ccc2C1NC(=O)O[C@@H]1CN2CCC1CC2 (stereo partly drawn) [Example 279, (S)-quinuclidin-3-yl (5-(4-(tert-butyl)phenyl)-2,2-diethyl-2,3-dihydro-1H-inden-1-yl)carbamate]	7.3 nM
CC1(C)Cc2ccc(-c3ccc(F)cc3F)cc2C1NC(=O)O[C@@H]1CN2CCC1CC2 (stereo partly drawn) [Example 63, (S)-quinuclidin-3-yl (6-(2,4-difluorophenyl)-2,2-dimethyl-2,3-dihydro-1H-inden-1-yl)carbamate]	117 nM
CCCOc1cccc(-c2cc3c(cc2F)C(NC(=O)O[C@@H]2CN4CCC2CC4)C(C)(C)C3)c1 (stereo partly drawn) [Example 377, (S)-quinuclidin-3-yl (6-fluoro-2,2-dimethyl-5-(3-propoxyphenyl)-2,3-dihydro-1H-inden-1-yl)carbamate]	35.5 nM
Cc1ccc(-c2ccc3c(c2)C(NC(=O)O[C@@H]2CN4CCC2CC4)CC3)cc1 (stereo partly drawn) [Example 38, (S)-quinuclidin-3-yl (6-(p-tolyl)-2,3-dihydro-1H-inden-1-yl)carbamate]	62 nM
COc1cccc(OC)c1-c1cc2c(cc1F)C(NC(=O)O[C@@H]1CN3CCC1CC3)C(C)(C)C2 (stereo partly drawn) [Example 383, (S)-quinuclidin-3-yl (5-(2,6-dimethoxyphenyl)-6-fluoro-2,2-dimethyl-2,3-dihydro-1H-inden-1-yl)carbamate]	123 nM
CCC1(CC)Cc2cc(-c3ccc(OC)cc3)ccc2C1NC(=O)O[C@@H]1CN2CCC1CC2 (stereo partly drawn) [Example 283, (S)-quinuclidin-3-yl (2,2-diethyl-5-(4-methoxyphenyl)-2,3-dihydro-1H-inden-1-yl)carbamate]	17.2 nM
Cc1cc(F)ccc1-c1ccc2c(c1)CC(C)(C)C2NC(=O)O[C@@H]1CN2CCC1CC2 (stereo partly drawn) [Example 228, (S)-quinuclidin-3-yl (5-(4-fluoro-2-methylphenyl)-2,2-dimethyl-2,3-dihydro-1H-inden-1-yl)carbamate]	48.6 nM
CC1(C)Cc2cc(-c3ccc(C4CC4)cc3)c(F)cc2C1NC(=O)O[C@@H]1CN2CCC1CC2 (stereo partly drawn) [Example 354, (S)-quinuclidin-3-yl (5-(4-cyclopropylphenyl)-6-fluoro-2,2-dimethyl-2,3-dihydro-1H-inden-1-yl)carbamate]	5.9 nM
COCOc1cccc(-c2ccc3c(c2)CC(C)(C)C3NC(=O)O[C@@H]2CN3CCC2CC3)c1 (stereo partly drawn) [Example 101, (S)-quinuclidin-3-yl (5-(3-(methoxymethoxy)phenyl)-2,2-dimethyl-2,3-dihydro-1H-inden-1-yl)carbamate]	8.7 nM
CCc1cccc(-c2cc3c(cc2F)C(NC(=O)O[C@@H]2CN4CCC2CC4)C(C)(C)C3)c1 (stereo partly drawn) [Example 371, (S)-quinuclidin-3-yl (5-(3-ethylphenyl)-6-fluoro-2,2-dimethyl-2,3-dihydro-1H-inden-1-yl)carbamate]	24.8 nM

SMILES	IC50
CC(C)Oc1ccc(F)c(-c2ccc3c(c2)CC(C)(C)C3NC(=O)O[C@@H]2CN3CCC2CC3)c1 (stereo partly drawn) [Example 172, (S)-quinuclidin-3-yl (5-(2-fluoro-5-isopropoxyphenyl)-2,2-dimethyl-2,3-dihydro-1H-inden-1-yl)carbamate]	48.5 nM
Cc1ccc(F)cc1-c1ccc2c(c1)CC(C)(C)C2NC(=O)O[C@@H]1CN2CCC1CC2 (stereo partly drawn) [Example 220, (S)-quinuclidin-3-yl (5-(5-fluoro-2-methylphenyl)-2,2-dimethyl-2,3-dihydro-1H-inden-1-yl)carbamate]	17.6 nM
CC1(C)Cc2ccc(-c3ccc(OC(F)(F)F)cc3)cc2C1NC(=O)O[C@@H]1CN2CCC1CC2 (stereo partly drawn) [Example 52, (S)-quinuclidin-3-yl (2,2-dimethyl-6-(4-(trifluoromethoxy)phenyl)-2,3-dihydro-1H-inden-1-yl)carbamate]	82.3 nM
CN(C)c1ccc(-c2ccc3c(c2)CC(C)(C)C3NC(=O)O[C@@H]2CN3CCC2CC3)cc1 (stereo partly drawn) [Example 132, (S)-quinuclidin-3-yl (5-(4-(dimethylamino)phenyl)-2,2-dimethyl-2,3-dihydro-1H-inden-1-yl)carbamate]	29.2 nM
CC1(C)Cc2cc(-c3ccc(C(F)(F)F)cc3C(F)(F)F)ccc2C1NC(=O)O[C@@H]1CN2CCC1CC2 (stereo partly drawn) [Example 252, (S)-quinuclidin-3-yl (5-(2,4-bis(trifluoromethyl)phenyl)-2,2-dimethyl-2,3-dihydro-1H-inden-1-yl)carbamate]	43.9 nM
COc1cc2c(cc1-c1ccc(C3CC3)cc1)CC(C)(C)C2NC(=O)O[C@@H]1CN2CCC1CC2 (stereo partly drawn) [Example 317, (S)-quinuclidin-3-yl (5-(4-cyclopropylphenyl)-6-methoxy-2,2-dimethyl-2,3-dihydro-1H-inden-1-yl)carbamate]	10.3 nM
CC1(C)CC(NC(=O)O[C@@H]2CN3CCC2CC3)c2ccc(-c3cccc(Cl)c3)cc21 (stereo partly drawn) [Example 399, (S)-quinuclidin-3-yl (5-(3-chlorophenyl)-3,3-dimethyl-2,3-dihydro-1H-inden-1-yl)carbamate]	43.6 nM
CCOc1ccccc1-c1ccc2c(c1)CC(C)(C)C2NC(=O)O[C@@H]1CN2CCC1CC2 (stereo partly drawn) [Example 177, (S)-quinuclidin-3-yl (5-(2-ethoxyphenyl)-2,2-dimethyl-2,3-dihydro-1H-inden-1-yl)carbamate]	22.9 nM
O=C(NC1CCc2ccc(-c3cc(Cl)ccc3Cl)cc21)O[C@@H]1CN2CCC1CC2 (stereo partly drawn) [Example 46, (S)-quinuclidin-3-yl (6-(2,5-dichlorophenyl)-2,3-dihydro-1H-inden-1-yl)carbamate]	19.2 nM
CC1(C)Cc2cc(-c3ccco3)ccc2C1NC(=O)O[C@@H]1CN2CCC1CC2 (stereo partly drawn) [Example 193, (S)-quinuclidin-3-yl (5-(furan-2-yl)-2,2-dimethyl-2,3-dihydro-1H-inden-1-yl)carbamate]	15.3 nM
COc1ccc(Cl)c(-c2ccc3c(c2)CC(C)(C)C3NC(=O)O[C@@H]2CN3CCC2CC3)c1 (stereo partly drawn) [Example 121, (S)-quinuclidin-3-yl (5-(2-chloro-5-methoxyphenyl)-2,2-dimethyl-2,3-dihydro-1H-inden-1-yl)carbamate]	4.7 nM
CC1(C)Cc2cc(-c3ccc(C4CC4)cc3)ccc2C1NC(=O)O[C@@H]1CN2CCC1CC2 (stereo partly drawn) [Example 131, (S)-quinuclidin-3-yl (5-(4-cyclopropylphenyl)-2,2-dimethyl-2,3-dihydro-1H-inden-1-yl)carbamate]	10.6 nM
COc1ccc(Cl)cc1-c1ccc2c(c1)CC(C)(C)C2NC(=O)O[C@@H]1CN2CCC1CC2 (stereo partly drawn) [Example 210, (S)-quinuclidin-3-yl (5-(5-chloro-2-methoxyphenyl)-2,2-dimethyl-2,3-dihydro-1H-inden-1-yl)carbamate]	7.5 nM
CC1(C)Cc2cc(-c3ccc(OCCF)cc3)ccc2C1NC(=O)O[C@@H]1CN2CCC1CC2 (stereo partly drawn) [Example 115, (S)-quinuclidin-3-yl (5-(4-(2-fluoroethoxy)phenyl)-2,2-dimethyl-2,3-dihydro-1H-inden-1-yl)carbamate]	38.3 nM
CCC1(CC)Cc2cc(-c3cccc(F)c3)ccc2C1NC(=O)O[C@@H]1CN2CCC1CC2 (stereo partly drawn) [Example 288, (S)-quinuclidin-3-yl (2,2-diethyl-5-(3-fluorophenyl)-2,3-dihydro-1H-inden-1-yl)carbamate]	11.2 nM
Cc1cscc1-c1ccc2c(c1)CC(C)(C)C2NC(=O)O[C@@H]1CN2CCC1CC2 (stereo partly drawn) [Example 138, (S)-quinuclidin-3-yl (2,2-dimethyl-5-(4-methylthiophen-3-yl)-2,3-dihydro-1H-inden-1-yl)carbamate]	9.1 nM
CC1(C)Cc2ccc(-c3cccc(C(F)(F)F)c3)cc2C1NC(=O)O[C@@H]1CN2CCC1CC2 (stereo partly drawn) [Example 55, (S)-quinuclidin-3-yl (2,2-dimethyl-6-(3-(trifluoromethyl)phenyl)-2,3-dihydro-1H-inden-1-yl)carbamate]	173 nM

same assay, conditions: read-out: IC50

SMILES	IC50
CCCOc1c(C)cc(-c2ccc3c(c2)CC(CC)(CC)C3NC(=O)O[C@@H]2CN3CCC2CC3)cc1C (stereo partly drawn) [Example 304, (S)-quinuclidin-3-yl (5-(3,5-dimethyl-4-propoxyphenyl)-2,2-diethyl-2,3-dihydro-1H-inden-1-yl)carbamate]	23.5 nM
